# Numbered stars: 1 amine (or outer) side, 2 acyl side, 3 side chain; on linkers, the order of the positions; unused ones are H or OH. Square brackets hold non-standard residues; d marks the D form. Side chains are listed from the residue outwards. Peptide text beside a SMILES is read from it. * marks the point of attachment. DOTA = O=C(O)CN1CCN(CC(=O)O)CCN(CC(=O)*)CCN(CC(=O)O)CC1; d(γGlu) = O=C(O)[C@@H](CCC(=O)[*:2])N[*:1]; 1Nal = N[C@@H](Cc1cccc2ccccc12)C(=O)O; NMeNle = CCCC[C@H](NC)C(=O)O; PEG4 = NCCOCCOCCOCCOCCC(=O)O
# Legend:
# [1] = design: species or system KM mice; conditions: mouse, in vivo, iv
# Experimental: To evaluate the clearance rates of [^68Ga]Ga-DOTA-CCK2R-dimer and [^68Ga]Ga-DOTA-CCK-66 from the blood, a pharmacokinetic study was conducted in male KM mice (4-6 weeks old, 18-20 g, n = 5/group). Each mouse received 3.7 MBq of radiotracer via tail vein injection, corresponding to approximately 120 pmol of [^68Ga]Ga-DOTA-CCK2R-dimer or 210 pmol of [^68Ga]Ga-DOTA-CCK-66. Blood samples were collected from the tail vein into preweighed capillary tubes at 1, 3, 5, 10, 15, 30, 60, 90, 120, and 150 min post-injection. The radioactivity of the blood samples was measured using a γ-counter, and the percent of injected dose per gram of tissue (%ID/g) was calculated. Additionally, we assessed the in vivo stability of [^177Lu]Lu-DOTA-CCK2R-dimer. Mice were intravenously injected with 7.4 MBq (≈ 240 pmol) of [^177Lu]Lu-DOTA-CCK2R-dimer (dissolved in 200 μL of saline; n = 3/group). Urine samples were collected at 1, 4, and 24 hours post-injection, then diluted, filtered through a 0.22 μm membrane, and analyzed by radio-HPLC.
# All animal studies were approved by the Ethics Committee of Fudan University […]
# Shanghai Cancer Center (No. FUSCC-IACUC- S2023- 0003). […]
# Pharmacokinetics in Normal Mice
# F or the pharmacokinetics study, […] male KM mice (4 - 6 weeks old, weighing 18 - 20 g) were administered either [68Ga]Ga-D O TA -CCK2R-dimer or [68Ga]Ga-D O TA -CCK- 66 (3.7 MBq per mouse, n = 5/group) via tail vein injection.
# Blood samples were collected from the tail vein using pre-weighed capillary tubes at […]
# (§1) Radioactivity levels were measured using a gamma counter, with decay correction applied based on the injection time. The percentage of injected dose per gram of tissue (%ID/g) was calculated for each time point. […]
# [2] = tested on: AR42J tumor-bearing mice; experiment: in vivo; design: species or system BALB/c nude mice; conditions: mouse, 1 h
# Experimental: To complement the imaging studies, biodistribution experiments were performed. AR42J tumor-bearing mice were intravenously injected with 3.7 MBq of [^68Ga]Ga-DOTA-CCK2R-dimer (≈ 120 pmol) or [^68Ga]Ga-DOTA-CCK-66 (≈ 210 pmol) (dissolved in 200 μL of saline; n = 3/group). The mice were sacrificed at 30, 60, and 120 min post-injection, and the tissues of interest were excised, weighed, and analyzed for radioactivity using a γ-counter. For blocking studies, a 400-fold excess of the lead compound was co-administered, and the mice were sacrificed at 1 h post-injection.
# All animal studies were approved by the Ethics Committee of Fudan University
# Shanghai Cancer Center (No. FUSCC-IACUC- S2023- 0003). Five-week-old female
# BALB/c nude mice were purchased from Shanghai SLAC Laboratory Animal
# Company. To establish cell-derived xenograft (CDX) models, 1 × 10⁶ AR42J cells
# (100 μL) were subcutaneously inoculated into the right shoulder of each mouse. […]
# [3] = tested on: AR42J tumor-bearing mice; experiment: In vivo therapeutic study (tumor volume, survival, body weight); design: species or system BALB/c nude mice
# Excerpt: When the tumor volume reached approximately 100 mm^3, the AR42J tumor-bearing mice were randomly divided into four treatment groups (n = 8/group).
# Tumor volumes and body weights were monitored every two days. The following humane endpoints were established as follows: tumor volume exceeding 1500 mm^3, weight loss greater than 15%, or observable signs of pain or distress. Mice meeting one of these criteria were euthanized.
# [4] = tested on: AR42J tumor-bearing mice; experiment: Toxicity studies (blood count, blood biochemistry, histopathology)
# Experimental: On day 12 post-treatment, the tumor tissues were processed and subjected to scRNA-seq and immunohistochemical (IHC) analysis (see Supplementary Methods, Section S4). […] Toxicity studies were conducted when the mice reached one of the predefined endpoints (Supplementary Methods, Section S6). […]
# Section S6: Toxicity Studies
# Blood samples were collected retro-orbitally using a glass capillary tube when mice reached one of the predefined endpoints. The samples were then centrifuged at 6,000 rpm for 10 minutes (Centrifuge 5417R, Eppendorf SE, Enfield, CT, USA), and the supernatant was transferred into a preventive care profile plus rotor for analysis of RBC, WBC, PLT, ALT, AST, ALP, BUN, and CREA. Sample analysis was performed
# [5] = tested on: GSTK1; experiment: Western blot of GSTK1 expression; format: cell-based, rat; conditions: cultured AR42J cells, 24 h
# Experimental: pathway analysis, and Reactome pathway analysis. GO enrichment analysis was conducted using clusterProfiler (v4.0.5). KEGG pathway enrichment was analyzed using clusterProfiler, focusing on pathways relevant to radiotherapy- related detoxification, including glutathione metabolism and cytochrome P450- mediated metabolism of xenobiotics. Reactome pathway analysis was performed using […]
# to radiosensitivity regulation. […]
# protease and phosphatase inhibitors. Total protein (20 μ g per sample) was separated […]
# ABclonal, Cat. No. A5226). After three washes with TBST, membranes were […]
# temperature. Protein bands were visualized using an enhanced chemiluminescence detection system (CLINX, ChemiScope 6200).
# Section S6: Toxicity Studies […]
# mice reached one of the predefined endpoints. The samples were then centrifuged at […]
# RBC, WBC, PLT, ALT, AST, ALP, BUN, and CREA. Sample analysis was performed
# [6] = design: species or system mice; conditions: mouse, in vivo, 24 h
# Experimental: In vitro stability was evaluated by incubating ~37 kBq of each radiotracer in PBS or human serum at 37 °C (n = 3). […] To further assess the in vivo stability of [^177Lu]Lu-DOTA-CCK2R-dimer, mice (n = 3) were intravenously injected with 3.7 MBq of the radiotracer in 200 μL of saline. […] The radioactivity of the blood samples was measured using a γ-counter, and the percent of injected dose per gram of tissue (%ID/g) was calculated. Additionally, we assessed the in vivo stability of [^177Lu]Lu-DOTA-CCK2R-dimer. Mice were intravenously injected with 7.4 MBq (≈ 240 pmol) of [^177Lu]Lu-DOTA-CCK2R-dimer (dissolved in 200 μL of saline; n = 3/group).
# [7] = tested on: AR42J tumor-bearing mice; experiment: Ex vivo biodistribution of 177Lu-labeled compound; design: species or system BALB/c nude mice; conditions: mouse, in vivo
# Experimental: To evaluate the biodistribution of [^177Lu]Lu-DOTA-CCK2R-dimer, AR42J tumor-bearing mice received intravenous (i.v.) injections of 3.7 MBq (≈ 120 pmol) of [^177Lu]Lu-DOTA-CCK2R-dimer (dissolved in 200 μL of saline; n = 3/group), and Mice were sacrificed at 1, 4, 24, 48, 72, and 96 h post-injection. The tissues of interest were excised, weighed, and analyzed for radioactivity using a γ-counter.
# All animal studies were approved by the Ethics Committee of Fudan University Shanghai Cancer Center (No. FUSCC-IACUC- S2023- 0003). Five-week-old female BALB/c nude mice were purchased from Shanghai SLAC Laboratory Animal
# Company. To establish cell-derived xenograft (CDX) models, 1 × 10⁶ AR42J cells (100 μL) were subcutaneously inoculated into the right shoulder of each mouse. […]
# as §1
# [8] = post-treatment blood biochemistry
smiles,measurement,setting,value
CCCC[C@@H](C(=O)N[C@@H](CC(=O)O)C(=O)N[C@@H](Cc1cccc2ccccc12)C(N)=O)N(C)C(=O)[C@H](Cc1c[nH]c2ccccc12)NC(=O)CCOCCOCCOCCOCCNC(=O)CC[C@@H](NC(=O)CC[C@H](NC(=O)CN1CCN(CC(=O)O)CCN(CC(=O)O)CCN(CC(=O)O)CC1)C(=O)N[C@H](CCC(=O)NCCOCCOCCOCCOCCC(=O)N[C@@H](Cc1c[nH]c2ccccc12)C(=O)N(C)[C@@H](CCCC)C(=O)N[C@@H](CC(=O)O)C(=O)N[C@@H](Cc1cccc2ccccc12)C(N)=O)C(=O)O)C(=O)O [[68Ga]Ga-DOTA-CCK2R-dimer] [metal not drawn] ({DOTA}-E([d(γGlu)-PEG4-Trp-NMeNle-Asp-1Nal-NH2])[d(γGlu)][PEG4]W[NMeNle]D[1Nal]-NH2),t1/2α,[1],37.8 s
same,Bladder uptake,[2],0.99 ± 0.77 %ID/g
same,Heart uptake,[2],0.2 ± 0.15 %ID/g
same,Kidney uptake,[2],12.32 ± 8.97 %ID/g
same,Liver uptake,[2],3.88 ± 2.47 %ID/g
"CO[C@H]1C[C@@H]2CC[C@@H](C)[C@@](O)(O2)C(=O)C(=O)N2CCCC[C@H]2C(=O)O[C@H]([C@H](C)C[C@@H]2CC[C@@H](OCCO)[C@H](OC)C2)CC(=O)[C@H](C)/C=C(\C)[C@@H](O)[C@@H](OC)C(=O)[C@H](C)C[C@H](C)/C=C/C=C/C=C/1C [RAD001, everolimus, reference compound]",median survival time,[3]; Kaplan-Meier,32 days
same,average tumor volume,[3]; day 10,197.63 ± 40.92 mm³
same,GRA,[4]; post-treatment CBC,23.97 ± 4.05%
same,GRA#,[4]; post-treatment CBC,0.19 ± 0.05 109/L
same,HCT,[4]; post-treatment CBC,25.73 ± 1.05%
same,HGB,[4]; post-treatment CBC,178.57 ± 3.40 g/L
same,LYM,[4]; post-treatment CBC,53.9 ± 5.47%
same,LYM#,[4]; post-treatment CBC,0.41 ± 0.03 109/L
same,MCH,[4]; post-treatment CBC,35.33 ± 0.87 pg
same,MCHC,[4]; post-treatment CBC,693.67 ± 15.95 g/L
same,MCV,[4]; post-treatment CBC,51.03 ± 0.57 fL
same,MON,[4]; post-treatment CBC,22.13 ± 2.32%
same,MON#,[4]; post-treatment CBC,0.17 ± 0.05 109/L
same,MPV,[4]; post-treatment CBC,13.8 ± 0.35 fL
same,P-LCR,[4]; post-treatment CBC,45.87 ± 1.03%
same,PCT,[4]; post-treatment CBC,0.12 ± 0.01%
same,PDW,[4]; post-treatment CBC,32.9 ± 0.3 fL
same,PLT,[4]; post-treatment CBC,104.33 ± 2.52 109/L
same,RBC,[4]; post-treatment CBC,5.05 ± 0.22 1012/L
same,RDWCV,[4]; post-treatment CBC,11.23 ± 0.15%
same,RDWSD,[4]; post-treatment CBC,23.33 ± 1.10 fL
same,WBC,[4]; post-treatment CBC,7.67 ± 1.15 109/L
same,ALP,[4]; [8],150.68 ± 32.99 U/L
same,ALT,[4]; [8],43.73 ± 11.08 U/L
same,AST,[4]; [8],109.76 ± 13.94 U/L
same,UA,[4]; [8],140.92 ± 41.88 µmol/L
same,UREA,[4]; [8],3.49 ± 1.30 mmol/L
same,GSTK1 expression (Western blot),[5],lower in the mTOR group than in the Veh group
CCCC[C@@H](C(=O)N[C@@H](CC(=O)O)C(=O)N[C@@H](Cc1cccc2ccccc12)C(N)=O)N(C)C(=O)[C@H](Cc1c[nH]c2ccccc12)NC(=O)CCOCCOCCOCCOCCNC(=O)CC[C@@H](NC(=O)CC[C@H](NC(=O)CN1CCN(CC(=O)O)CCN(CC(=O)O)CCN(CC(=O)O)CC1)C(=O)N[C@H](CCC(=O)NCCOCCOCCOCCOCCC(=O)N[C@@H](Cc1c[nH]c2ccccc12)C(=O)N(C)[C@@H](CCCC)C(=O)N[C@@H](CC(=O)O)C(=O)N[C@@H](Cc1cccc2ccccc12)C(N)=O)C(=O)O)C(=O)O [[177Lu]Lu-DOTA-CCK2R-dimer] [metal not drawn] ({DOTA}-E([d(γGlu)-PEG4-Trp-NMeNle-Asp-1Nal-NH2])[d(γGlu)][PEG4]W[NMeNle]D[1Nal]-NH2),compound remaining intact in urine (radiochemical purity),[6],more than 96%
same,Tumor-to-Muscle ratio (T/M),[7],90.85
same,ALP,"[4]; mouse, in vivo",135.99 ± 24.61 U/L
same,ALT,"[4]; mouse, in vivo",44.93 ± 6.41 U/L
same,AST,"[4]; mouse, in vivo",87.94 ± 5.64 U/L
same,GRA,"[4]; mouse, in vivo",28.7 ± 8.16%
same,GRA#,"[4]; mouse, in vivo",0.20 ± 0.07 109/L
same,HCT,"[4]; mouse, in vivo",19.2 ± 5.20%
same,HGB,"[4]; mouse, in vivo",151.67 ± 19.64 g/L
same,LYM,"[4]; mouse, in vivo",52.27 ± 2.74%
same,LYM#,"[4]; mouse, in vivo",0.38 ± 0.14 109/L
same,MCH,"[4]; mouse, in vivo",41.83 ± 6.37 pg
same,MCHC,"[4]; mouse, in vivo",714 ± 42.04 g/L
same,MCV,"[4]; mouse, in vivo",51.63 ± 0.81 fL
same,MON,"[4]; mouse, in vivo",19.03 ± 9.18%
same,MON#,"[4]; mouse, in vivo",0.15 ± 0.13 109/L
same,P-LCR,"[4]; mouse, in vivo",35.87 ± 5.49%
same,PCT,"[4]; mouse, in vivo",0.16 ± 0.04%
same,PDW,"[4]; mouse, in vivo",28.67 ± 2.04 fL
same,PLT,"[4]; mouse, in vivo",116 ± 13.08 109/L
same,RBC,"[4]; mouse, in vivo",4.72 ± 0.81 1012/L
same,RDWCV,"[4]; mouse, in vivo",10.77 ± 0.40%
same,RDWSD,"[4]; mouse, in vivo",22.33 ± 1.15 fL
same,UA,"[4]; mouse, in vivo",126.33 ± 13.85 µmol/L
same,UREA,"[4]; mouse, in vivo",3.25 ± 0.56 mmol/L
same,WBC,"[4]; mouse, in vivo",7.0 ± 2.65 109/L
same,MPV,[4]; post-treatment CBC,12.2 ± 0.61 fL

# — publication PMC12439480, “Dimeric CCK2R radiotheranostic tracers synergize with mTOR inhibition for enhanced tumor therapy” (Theranostics, 2025)
